Here are results for two compounds from patent publication US11506660B2, “Method and system for determining equilibrium dissociation constant of a reversible binding pair” (priority 2017, dated 2022).

SMILES strings stand for the structures. Like-named read-outs stand apart in the source and are kept apart here.

Series [1] concerns α1-acid glycoprotein (AGP). Conditions: literature, cited from earlier work.
The target of series [2] is T1, α1-acid glycoprotein (AGP) (Homo sapiens, UniProt P02763).
T1 construct: Kd; [alprenolol]0=500 nM; 30 mM ammonium acetate p; Kd; other: MS detection
T1 sequence (P02763 19-201): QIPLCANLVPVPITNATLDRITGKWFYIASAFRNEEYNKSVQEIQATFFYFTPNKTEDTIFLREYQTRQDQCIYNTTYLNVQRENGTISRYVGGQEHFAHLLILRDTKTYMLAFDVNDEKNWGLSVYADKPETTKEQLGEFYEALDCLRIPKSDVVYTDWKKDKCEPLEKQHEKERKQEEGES
In words: LSTDLPF-MS (APCI mass-spectrometry detection) Kd determination, alprenolol/AGP. Type of series: binding. Conditions: α1-acid glycoprotein (AGP) in buffer, pH 7.5, Kd. The method, then:
The LSTDLPF-MS tandem was then used in Kd determination for a reversible binding pair of alprenolol and α1-acid glycoprotein (AGP).
MS experiments were carried out on a QTRAP 6500+ time-of-flight (Q-TOF) instrument (Sciex, Concord, ON, Canada) with a commercial Turbo V APCI ionization source. The optimal acceleration and focusing conditions were achieved by using 60 V declustering potential at 525° C. and 90 psi gas pressure. The analyses were performed in positive mode and scanned m/z 250 Da for alprenolol. The results were analyzed by using Analyst® QS 2.0 software. The propagation profiles obtained for [alprenolol]0=500 nM and varying [AGP]0 were reproducible (FIGS. 19A-19J). Experimental conditions were: internal capillary diameter=200 μm, capillary length=100 cm, flow rate of LPF=100 μL/min., loop's internal diameter=75 μm, loop's length=22.7 cm, loop's volume=1 μL; EM injection by 5 μL/min for 12 s (plug length=3.2 cm); “pre-separation” plug displacement by 5 μL/min for 12 s (3.2 cm displacement); [AGP]0 ranged from 0 to 1 mM; buffer was 30 mM ammonium acetate buffer at pH 7.5.
In this case, the screening phenomenon was characterized by enhancing signal of alprenolol with growing [AGP]0, (FIG. 16A). […] The method is also characterized by an acceptable reproducibility.

The target of series [3] is T2, BSA (Bos taurus, UniProt P02769). In words: LSTDLPF-based Kd determination with fluorescence detection, BSA/fluorescein. Type of series: binding, bovine. As to the method:
In an experimental implementation of the method, LSTDLPF was carried out with flow conditions inside the capillary tube being as close to LPF as possible. It is known that LPF is distorted at the capillary entrance open to a large-volume reservoir (A. Molki, L. Khezzar, A. Goharzadeh Eur. J. Phys. 2013, 34, 1127-1134).
The system operates in the following manner. A loop 116 is utilized in order to deliver the same amount of sample consistently. […] To complete the filling of the loop, the sample 110 was introduced into the loop at 15 μL/min during 12 s (t1) by using a sample low pressure pump 126, which represents 3 times the volume of the loop (FIG. 8A). The low-pressure pump 126 may be, but is not limited to, a syringe pump or a peristaltic pump. While the loop is being filled as depicted in FIG. 8A, the capillary 108 is conditioned with the mobile phase 118 at high flow rate by using a high-pressure pump 124. This high flow rate corresponds to the flow rate utilized during the propagation and will be noted Qprop afterward.
The injection of the sample is illustrated in FIG. 8B. The positions of both valves 102 and 104 have been switched. In this configuration, the low-pressure pump 128 delivered the mobile phase 112 via the injection loop 116 which contained the sample or equilibrium mixture (EM) 110. […]

Series [4] concerns the target T2, BSA. Conditions: known value, Andersson et al. Eur. J. Biochem. 1971; cited from earlier work.
For series [5], the target named is T2, BSA. In words: LSTDLPF-MS (APCI mass-spectrometry detection) Kd determination, BSA/fluorescein. The format is binding, bovine. The method, then: In another embodiment, the LSTDLPF setup was coupled with a mass-spectrometry (MS) detector. To facilitate complete dissociation of SM during ionization, an atmospheric pressure chemical ionization (APCI) ionization source was utilized (FIGS. 14A, 16A). The LSTDLPF-MS tandem was first used to study the same BSA/fluorescein binding pair. Experimental conditions were: internal capillary diameter=200 μm, capillary length=100 cm, flow rate of LPF=100 μL/min. loop's internal diameter=75 μm, loop's length=22.7 cm, loop's volume=1 μL, EM injection into the capillary followed by EM displacement from the capillary opening by 5 μL/min for 12 s (EM plug length=3.2 cm); “pre-separation” plug displacement by 5 μL/min for 12 s (3.2 cm displacement); [fluorescein]0=200 nM; and buffer was 30 mM ammonium acetate buffer at pH 7.5. MS experiments were carried out on a QTRAP 6500+ time-of-flight (Q-TOF) instrument (Sciex, Concord, ON, Canada) with a commercial Turbo V APCI ionization source. The optimal acceleration and focusing conditions were achieved by using 60 V declustering potential at 525° C. and 90 psi gas pressure. The analyses were performed in positive mode and scanned m/z 287 Da for fluorescein. The results were analyzed by using Analyst® QS 2.0 software.
The MS signal decreased with increasing [BSA]0 (FIG. 14A), due to the screening effect. The results presented repeatability (see FIGS. 15A-15I). Experimental conditions were: internal capillary diameter=200 μm, capillary length=100 cm, flow rate of LPF=100 μL/min. loop's internal diameter=75 μm, loop's length=22.7 cm, loop's volume=1 μL, EM injection by 5 μL/min for 12 s (plug length=3.2 cm); “pre-separation” plug displacement by 5 μL/min for 12 s (3.2 cm displacement); [fluorescein]0=200 nM; [BSA]0 ranged from 0 to 1 mM; and buffer was 30 mM ammonium acetate buffer at pH 7.5. MS experiments were carried out on a QTRAP 6500+ time-of-flight (Q-TOF) instrument (Sciex, Concord, ON, Canada) with a commercial Turbo V APCI ionization source. […] The results were analyzed by using Analyst® QS 2.0 software

T2 sequence (P02769 25-607): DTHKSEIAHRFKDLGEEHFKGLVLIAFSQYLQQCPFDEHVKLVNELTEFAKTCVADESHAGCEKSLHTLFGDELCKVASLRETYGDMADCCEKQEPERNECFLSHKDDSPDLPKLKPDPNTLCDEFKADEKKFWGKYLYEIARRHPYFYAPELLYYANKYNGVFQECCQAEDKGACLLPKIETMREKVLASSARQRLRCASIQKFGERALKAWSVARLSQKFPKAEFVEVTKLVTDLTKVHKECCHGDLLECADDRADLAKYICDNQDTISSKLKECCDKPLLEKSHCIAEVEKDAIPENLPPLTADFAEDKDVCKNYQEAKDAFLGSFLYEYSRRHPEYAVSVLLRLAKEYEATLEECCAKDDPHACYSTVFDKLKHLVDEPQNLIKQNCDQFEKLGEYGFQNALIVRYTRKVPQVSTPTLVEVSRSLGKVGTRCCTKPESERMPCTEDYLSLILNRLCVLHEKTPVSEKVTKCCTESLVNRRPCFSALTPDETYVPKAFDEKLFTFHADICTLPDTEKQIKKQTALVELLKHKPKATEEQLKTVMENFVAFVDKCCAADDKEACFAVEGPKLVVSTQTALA

For orientation: Kd means the equilibrium constant for the complex coming apart. On to `C=CCc1ccccc1OCC(O)CNC(C)C` (stereo not shown) [alprenolol, Alprenolol], for which the Kd in series [1] (Bao et al. ChemBioChem 2011) is 2.1 ± 0.3 µM; in series [1] (Imamura et al. Chirality 2002), 1.6 ± 0.1 µM. For the same compound, the Kd at 500 nM in series [2] (after 2-step screening compensation (FIG. 16C), [alprenolol]0=500 nM, 30 mM ammonium acetate pH 7.5) was found to be 1.8 ± 0.2 µM; in series [2] (measurements performed on a different day (FIGS. 20A-20D)), 4.1 ± 0.8 µM.

Regarding `O=C1OC2(c3ccc(O)cc3Oc3cc(O)ccc32)c2ccccc21` [fluorescein], the Kd was 23 ± 3 µM on BSA [3] (single experiment, non-linear regression of isotherm with Equation 5, [fluorescein]0=200 nM, 30 mM ammonium acetate pH 7.5, error = SD of regression, read-out: Kd); 20 ± 2 µM at BSA [3] (triplicate experiment on three different days, error = SD of the three experiments, read-out: global Kd); ~30 µM on BSA [4]; 32 ± 4 µM on BSA [5] (after 2-step screening compensation, first experiment (FIG. 14C), [fluorescein]0=200 nM, read-out: Kd); 24 ± 2 µM at BSA [5] (after screening compensation, reproduced on another day (FIG. 18), read-out: Kd); 26 ± 2 µM at BSA [5] (weighted average of the two Kd measurements, read-out: weighted average of Kd).
